Reference: ChEMBL document CHEMBL5230104, “Systemic review on B-RafV600E mutation as potential therapeutic target for the treatment of cancer” (Eur J Med Chem, 2020)
Values belong to the compound of their own block, whether it stands above or below them.

Key:
[1] = system: M14; experiment: Antiproliferative activity against human M14 cells; format: functional, cell-based
[2] = system: Melanoma cell line; experiment: Antiproliferative activity against human Melanoma cell line; format: functional, cell-based
[3] = system: COLO-829; experiment: Antiproliferative activity against human COLO-829 cells by CellTiter-Glo Luminescent Cell Viability Assay; format: functional, cell-based
[4] = system: A-375; experiment: Antiproliferative activity against human A-375 cells by CellTiter-Glo Luminescent Cell Viability Assay; format: functional, cell-based
[5] = system: COLO 205; experiment: Antitumor activity against human COLO 205 cells xenografted in mouse model assessed as tumor growth inhibition at 30 mg/kg/day relative to control; format: functional; parameters: scale not given: the % may be the effect or the level left
[6] = system: COLO 205; experiment: Antiproliferative activity against human COLO 205 cells by CellTiter-Glo Luminescent Cell Viability Assay; format: functional, cell-based
[7] = system: WM 266-4; experiment: Antiproliferative activity against human WM266-4 cells by CellTiter-Glo Luminescent Cell Viability Assay; format: functional, cell-based
[8] = system: HT-144; experiment: Antiproliferative activity against human HT-144 cells harbouring B-Raf V600E mutant by SRB assay; format: functional, cell-based
[9] = system: A-375; experiment: Antitumor activity against human A-375 cell xenografted in F344 nude rat model assessed as tumor growth inhibition by measuring T/C ratio at 24.1 mg/kg relative to control; format: functional
[10] = system: A-375; experiment: Antitumor activity against human A-375 cell xenografted in F344 nude rat model assessed as tumor growth inhibition by measuring T/C ratio at 9.7 mg/kg relative to control; format: functional
[11] = system: CHL-1; experiment: Antiproliferative activity against human CHL-1 cells harbouring wild type B-Raf by SRB assay; format: functional, cell-based
[12] = system: HMCB cell line; experiment: Antiproliferative activity against human HMCB cells harbouring wild type B-Raf by SRB assay; format: functional, cell-based
[13] = system: HMV-2 cell line; experiment: Antiproliferative activity against human HMV-2 cells harbouring B-Raf G469V mutant by SRB assay; format: functional, cell-based
[14] = system: A-375; experiment: Antiproliferative activity against human A-375 cells harbouring B-Raf V600E mutant by SRB assay; format: functional, cell-based
[15] = system: SK-MEL-2; experiment: Antiproliferative activity against human SK-MEL-2 cells harbouring wild type B-Raf by SRB assay; format: functional, cell-based
[16] = system: Malme-3M; experiment: Antiproliferative activity against human Malme-3M cells harbouring B-Raf V600E mutant by SRB assay; format: functional, cell-based
[17] = target: Serine/threonine-protein kinase B-raf (Homo sapiens, UniProt P15056, V600E); experiment: Inhibition of B-Raf V600E mutant (unknown origin)
[18] = system: A-375; experiment: Antiproliferative activity against human A-375 cells assessed as inhibition of cell viability; format: functional, cell-based
[19] = system: A-375; experiment: Antitumor activity against human A-375 cells xenografted in mouse model assessed as tumor growth inhibition at 50 mg/kg, iv relative to control; format: functional; parameters: scale not given: the % may be the effect or the level left
[20] = system: SK-MEL-28; experiment: Antiproliferative activity against human SK-MEL-28 cells assessed as inhibition of cell viability; format: functional, cell-based
[21] = system: Malme-3M; experiment: Antiproliferative activity against human Malme-3M cells assessed as inhibition of cell viability; format: functional, cell-based
[22] = In vivo inhibition of B-Raf in human A-375 cells xenografted in mouse model assessed as tumor growth inhibition; format: functional, cell-based

IC50 [2]: 10000 nM
Structure (SMILES): Cc1ccc(NC(=O)c2cccc(C(C)(C)C#N)c2)cc1Nc1ccc2ncn(C)c(=O)c2c1
IC50 [1]: 100 nM

IC50 [3]: 1700 nM
IC50 [4]: 500 nM
IC50 [6]: 310 nM
Structure (SMILES): CCCS(=O)(=O)Nc1ccc(F)c(C(=O)c2c[nH]c3ncc(Cl)cc23)c1F [PLX-4720]
Activity [5]: 90%
IC50 [7]: 1500 nM

IC50 [8]: 110 nM
IC50 [14]: 160 nM
IC50 [15]: 60 nM
Structure (SMILES): N#Cc1c(Oc2ccc(F)c(NC(=O)Cc3cccc(C(F)(F)F)c3)c2)ccc2nc(NC(=O)C3CC3)sc12
T/C [9]: 12.1%
T/C [10]: 2.1%
IC50 [11]: 2.07 nM
IC50 [12]: 350 nM
IC50 [13]: 200 nM
IC50 [16]: 50 nM

Structure (SMILES): CN(C)CCOc1ccc(-c2n/c(=c3\ccc4c(c3)CCC=4N=O)c(=C3C=CNC=C3)[nH]2)cc1
IC50 [18]: 370 nM
Activity [19]: 80%
IC50 [20]: 120 nM
IC50 [21]: 150 nM

Structure (SMILES): OCCn1cc(-c2ccc3c(c2)CC/C3=N/O)c(-c2ccncc2)n1
IC50 [22]: 59 nM
